Experimental data from ChEMBL document CHEMBL1153684, “Antiinflammatory -benzeneethanamines. III” (Bioorg Med Chem Lett, 1993).

What was measured:
[1] = molecular target: T1, Polyunsaturated fatty acid 5-lipoxygenase (Rattus norvegicus, UniProt P12527); assay: Inhibition of rat basophilic leukemia cell 5-lipoxygenase
T1 sequence (P12527 whole entry): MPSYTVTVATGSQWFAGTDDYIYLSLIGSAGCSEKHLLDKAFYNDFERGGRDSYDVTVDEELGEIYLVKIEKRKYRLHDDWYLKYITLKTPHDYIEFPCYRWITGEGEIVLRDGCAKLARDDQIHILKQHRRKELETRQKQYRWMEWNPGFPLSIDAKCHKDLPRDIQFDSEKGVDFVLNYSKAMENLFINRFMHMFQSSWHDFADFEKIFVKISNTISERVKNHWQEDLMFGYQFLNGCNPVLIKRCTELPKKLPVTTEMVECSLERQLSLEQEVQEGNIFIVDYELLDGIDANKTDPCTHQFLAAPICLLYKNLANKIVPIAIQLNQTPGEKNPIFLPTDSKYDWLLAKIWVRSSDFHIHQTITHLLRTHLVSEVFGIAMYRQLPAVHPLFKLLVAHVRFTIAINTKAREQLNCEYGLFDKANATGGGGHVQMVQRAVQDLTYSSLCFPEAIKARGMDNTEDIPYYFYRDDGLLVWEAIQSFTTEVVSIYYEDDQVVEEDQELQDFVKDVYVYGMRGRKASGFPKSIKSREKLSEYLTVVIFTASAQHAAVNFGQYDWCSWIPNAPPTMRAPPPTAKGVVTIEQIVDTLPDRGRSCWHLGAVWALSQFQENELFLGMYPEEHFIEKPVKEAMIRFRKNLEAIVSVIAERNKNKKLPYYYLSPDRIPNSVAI

[2] = molecular target: Phospholipase A2 (Rattus norvegicus, UniProt P04055); assay: Inhibitory activity against polymorphonuclear cell phospholipase-A2 in rat
[3] = test system: Rattus norvegicus; assay: Compound was tested for its oral antiinflammatory activity in the rat carrageenan paw edema assay (CAR); type: functional
[4] = test system: Mus musculus; assay: Percent inhibition for its antiinflammatory activity in the tetradecanoyl phorbol acetate mouse ear edema assay (TPA EAR); Inhibition at 100 […]; type: functional
[5] = test system: Mus musculus; assay: Compound was tested for its oral antiinflammatory activity in the mouse contact sensitivity assay (CON SEN) at the specified dose, activity expressed as % inhibition at 50 mg/Kg; type: functional
[6] = test system: Rattus norvegicus; assay: Percent inhibition for its antiinflammatory activity in the rat carrageenan paw edema assay (CAR), % inhibition at 50 mg/Kg; type: functional
[7] = test system: Rattus norvegicus; assay: Compound was tested for its antiinflammatory activity in the rat established adjuvant arthritis paw edema assay (EST ADJ ARTH), after oral administration; type: functional
[8] = species on record: Mus musculus; assay: Compound was tested for its oral antiinflammatory activity in the mouse contact sensitivity assay (CON SEN); type: functional

Phospholipase A2, sequence (P04055 whole entry): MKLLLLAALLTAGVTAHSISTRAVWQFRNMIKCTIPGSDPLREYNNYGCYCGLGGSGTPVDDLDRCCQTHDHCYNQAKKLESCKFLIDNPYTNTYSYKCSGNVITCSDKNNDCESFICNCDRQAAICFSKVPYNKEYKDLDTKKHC

SMILES	IC50 [1]	IC50 [2]	ED30 [3]	Inhibition [4]	inhibition in vivo at 50 mg/kg [5]	inhibition in vivo at 50 mg/kg [6]	ED50 [7]	ED35 [8]	ED30 ([3]; Rattus norvegicus, po, read-out: ED30)
Cc1ccc(SCCCCCC(CN)c2ccc(F)cc2)cc1.Cl (stereo not given)	35 µM	6.6 µM	117.7 µM/kg	–	–	–	–	–	–
Cc1ccc(SCCCCC(CN)c2ccc(F)cc2)cc1.Cl (stereo not given)	9.5 µM	5.5 µM	1.4 µM/kg	37%	51.2%	59%	50 mg/kg	8.9 mg/kg	0.51 mg/kg
CC(C)(C)c1ccc(SCCCCC(CN)c2ccc(F)cc2)cc1.Cl (stereo not given)	230 µM	4.8 µM	153.8 µM/kg	–	–	–	–	–	–
Cc1ccc(SCCCC(CN)c2ccc(F)cc2)cc1.Cl (stereo in doubt; 2)	38 µM	28.3 µM	50 µM/kg	–	–	–	–	–	–
NC1=NN(c2cccc(C(F)(F)F)c2)CC1 [BW-755C]	–	> 25 µM	–	–	–	–	–	–	–
C[C@@H]1C[C@H]2[C@@H]3CCC4=CC(=O)C=C[C@]4(C)[C@@]3(F)[C@@H](O)C[C@]2(C)[C@@]1(O)C(=O)CO [DEXAMETHASONE]	> 25 µM	> 750 µM	<2.5 µM/kg	–	–	–	–	–	–
COc1ccc2c(c1)c(CC(=O)O)c(C)n2C(=O)c1ccc(Cl)cc1 [INDOMETHACIN]	> 250 µM	–	2.8 µM/kg	–	–	–	–	–	–

Further compounds by falling IC50 [2], results first:

IC50 [1]	IC50 [2]	SMILES	ED30 [3]	Inhibition [4]	inhibition in vivo at 50 mg/kg [5]	inhibition in vivo at 50 mg/kg [6]	ED50 [7]	ED35 [8]	ED30 ([3]; Rattus norvegicus, po, read-out: ED30)
–	100 µM	CCN(CC)CCCC(C)Nc1c2ccc(Cl)cc2nc2ccc(OC)cc12 (stereo not given) [QUINACRINE]	5.8 µM/kg	–	–	–	–	–	–
75 µM	54 µM	Cc1ccc(SCCCC(CN)c2ccc(F)cc2)cc1.Cl (stereo in doubt)	>172.8 µM/kg	–	–	–	–	–	–
23 µM	14 µM	Cl.NCC(CCCSc1ccc2ccccc2c1)c1ccc(F)cc1 (stereo not given)	>153.6 µM/kg	–	–	–	–	–	–
130 µM	2.4 µM	Cl.NCC(CCCCSc1ccc2ccccc2c1)c1ccc(F)cc1 (stereo not given)	171.3 µM/kg	–	–	–	–	–	–
